# Where two headings read alike, the source gives them in different places.
# Columns and labels:
# [1] = tested on: Mtb H37Rv strain; experiment: MIC90 determination in GASTE-Fe media (broth microdilution); format: cell-based, Mycobacterium tuberculosis; set-up: fold loss in activity/potency (MIC90): reference not given here
# [2] = format: in vitro ADME; conditions: for Metabolic Stability H (% Rem.): human liver microsomes; for Metabolic Stability M (% Rem.): mouse liver microsomes; for Metabolic Stability R (% Rem.): rat liver microsomes
# Description: 3.2. Microsomal stability
# The metabolic stability assay was performed in duplicate in a 96-well micro titre plate. The test compounds (0.1 μM) were incubated individually in mouse, rat and pooled human liver microsomes ((final protein concentration of 0.4 mg/mL; XenoTech, Lenexa, KS ), suspended in 0.1M phosphate buffer (pH 7.4) at 37 °C for predetermined time points, in the presence and absence of the cofactor NADPH (1 mM). Reactions were quenched by adding ice cold acetonitrile containing internal standard (carbamazepine, 0.0236 µg/mL). T he samples were centrifuged and test compound in the supernatant were analysed by means of LC -MS/MS (Agilent Rapid Resolution HPLC, AB SCIEX 4500 MS ). The relative loss of parent compound over time was monitored and plots (concentration vs. time) were prepared per compound to determine the first order rate constant for compound depletion. This was in turn used to calculate half-life, in vitro intrinsic clearance and in vivo hepatic extraction ratio. Metabolite searches were not conducted during the metabolic stability assay. 5
# [3] = physchem; format: physicochemical; conditions: for solubility: kinetic solubility, pH 7.4, HPLC method; for fold improvement in solubility: pH 7.4, relative to comparator analogue
# Description: The kinetic solubility assay was performed using a miniaturised shake flask method. 10 mM stock solutions of each of the test compounds were used to prepare calibration standards (10-220μM) in DMSO. The same 10mM stock solutions were accurately dispensed in duplicate into 96-well plates and the DMSO dried down (MiVac GeneVac, 90 min, 37 °C). Thereafter, the samples were reconstituted (200 µM) in phosphate buffered saline (pH 7.4) and shaken (20 hours, 25 °C). The solutions were filtered and analysed by means of HPLC -DAD (Agilent 1200 Rapid Resolution HPLC with a diode array detector). […]
# [4] = in vitro; conditions: Chinese hamster
# [5] = Mtb H37Rv, replicating conditions, GASTE-Fe media, read 14 days after incubation, read-out: MIC90 GASTE-Fe
# [6] = Mycobacterium tuberculosis, H37RV, 336 h, Mtb H37Rv, replicating conditions, GASTE-Fe media, read 14 days after incubation, read-out: MIC90 GASTE-Fe
# [7] = Mycobacterium tuberculosis, H37RV, 336 h, read-out: MIC90 GAST-Fe
Structure (SMILES),"MIC90 [1, 6]",Metabolic Stability H (% Rem.) [2],Metabolic Stability M (% Rem.) [2],Metabolic Stability R (% Rem.) [2],"solubility ([3]; 25 °C, pH 7.4, aqueous buffer)","MIC90 [1, 7]",also measured
"NC[C@H]1O[C@H](O[C@H]2[C@H](O)[C@@H](O[C@H]3O[C@H](CO)[C@@H](O)[C@H](N)[C@H]3O)[C@H](N)C[C@@H]2N)[C@H](O)[C@@H](O)[C@@H]1O [Kanamycin, reference compound]",,,,,,,"MIC90 [1, 5]: 1.562 µM"
Cc1ccc(S(C)(=O)=O)cc1-c1ccc2nc(N)n(-c3ccc(C(F)(F)F)cc3)c(=O)c2c1 [compound 7],4.22 µM,65 % Rem.,90 % Rem.,86 % Rem.,53.3 µM,,solubility [3]: 53 µM; fold improvement in solubility [3]: 10 fold; IC50 [4]: > 100 µM
Nc1nc2ccc(-c3cccc(S(=O)(=O)C4CC4)c3)cc2c(=O)n1-c1ccc(C(F)(F)F)cc1 [compound 8],2.35 µM,85 % Rem.,97 % Rem.,98 % Rem.,66 µM,,IC50 [4]: 0.021 µM
NC(=O)c1cccc(-c2ccc3nc(N)n(-c4ccc(C(F)(F)F)cc4)c(=O)c3c2)c1 [compound 9],< 0.244 µM,97/-/- % Rem.,,,< 5 µM,,IC50 [4]: > 100 µM
CN(C)C(=O)c1cccc(-c2ccc3nc(N)n(-c4ccc(C(F)(F)F)cc4)c(=O)c3c2)c1 [compound 10],2.15 µM,85 % Rem.,89 % Rem.,86 % Rem.,46 µM,,IC50 [4]: 0.64 µM
CNC(=O)c1cccc(-c2ccc3nc(N)n(-c4ccc(C(F)(F)F)cc4)c(=O)c3c2)c1 [compound 11],0.78 µM,98 % Rem.,100 % Rem.,100 % Rem.,< 5 µM,,IC50 [4]: 96.3 µM
CNC(=O)c1cncc(-c2ccc3nc(N)n(-c4ccc(C(F)(F)F)cc4)c(=O)c3c2)c1 [compound 12],9.22 µM,85 % Rem.,75 % Rem.,85 % Rem.,40 µM,,fold loss in activity/potency (MIC90) [1]: 10 fold; solubility [3]: 39 µM
"Nc1nc2ccc(-c3cncc(C(=O)N4CCOCC4)c3)cc2c(=O)n1-c1ccc(C(F)(F)F)cc1 [compound 17, 2-Amino-6-(5-(morpholine-4-carbonyl)pyridin-3-yl)-3-(4-(trifluoromethyl)phenyl)quinazolin-4(3H)-one]",83 µM,,,,,,fold loss in activity/potency (MIC90) [1]: 15 fold
COc1cncc(-c2ccc3nc(N)n(-c4ccc(C(F)(F)F)cc4)c(=O)c3c2)c1 [compound 24],,72/-/- % Rem.,,,40 µM,,IC50 [4]: > 100 µM
COc1cccc(-c2ccc3nc(N)n(-c4ccc(C(F)(F)F)cc4)c(=O)c3c2)c1 [compound 25],10 µM,,,,,,
CC(C)(C)c1cccc(-c2ccc3nc(N)n(-c4ccc(C(F)(F)F)cc4)c(=O)c3c2)c1 [compound 26],10 µM,,,,,,IC50 [4]: > 100 µM
Nc1nc2ccc(-c3cccc(Cl)c3)cc2c(=O)n1-c1ccc(C(F)(F)F)cc1 [compound 29],0.675 µM,73/-/- % Rem.,,,< 5 µM,,
NC(=O)c1cccc(-c2ccc3c(=O)n(-c4ccc(C(F)(F)F)cc4)c(N)nc3c2)c1 [compound 33],1.22 µM,96 % Rem.,92 % Rem.,93 % Rem.,58 µM,,fold improvement in solubility [3]: 10 fold
C[S+]([O-])c1cccc(-c2ccc3nc(N)n(-c4cccc(C(F)(F)F)c4)c(=O)c3c2)c1 (stereo not shown) [compound 34],,50 % Rem.,51 % Rem.,58 % Rem.,> 100 µM,14.8 µM,solubility [3]: 164 µM
C[S+]([O-])c1cccc(-c2ccc3nc(N)n(-c4ccccc4)c(=O)c3c2)c1 (stereo not shown) [compound 35],,,,,,33 µM,MIC90 ([1]; read-out: MIC90 GAST-Fe): 33.4 µM
Cc1ccc(-n2c(N)nc3ccc(-c4cccc([S+](C)[O-])c4)cc3c2=O)cc1 (stereo not shown) [compound 36],,99 % Rem.,71 % Rem.,68 % Rem.,> 100 µM,3.09 µM,solubility [3]: 172 µM

Structure (SMILES),"MIC90 [1, 6]",Metabolic Stability H (% Rem.) [2],Metabolic Stability M (% Rem.) [2],Metabolic Stability R (% Rem.) [2],"solubility ([3]; 25 °C, pH 7.4, aqueous buffer)","MIC90 [1, 7]",also measured
"CS(=O)(=O)c1cccc(-c2ccc3ncn(-c4ccc(C(F)(F)F)cc4)c(=O)c3c2)c1 [compound 38, 6-(3-(Methylsulfonyl)phenyl)-3-(4-(trifluoromethyl)phenyl)quinazolin-4(3H)-one]",2.96 µM,,,,< 5 µM,,fold loss in activity/potency (MIC90) [1]: 10 fold
"CN(C)c1nc2ccc(-c3cccc([S+](C)[O-])c3)cc2c(=O)n1-c1ccc(C(F)(F)F)cc1 (stereo not shown) [compound 42, 2-(Dimethylamino)-6-(3-(methylsulfinyl)phenyl)-3-(4-(trifluoromethyl)phenyl)quinazolin-4(3H)-one]",2.89 µM,82 % Rem.,80 % Rem.,86 % Rem.,< 5 µM,,
"CN(C)c1nc2ccc(-c3cccc(S(C)(=O)=O)c3)cc2c(=O)n1-c1ccc(C(F)(F)F)cc1 [compound 43, 2-(Dimethylamino)-6-(3-(methylsulfonyl)phenyl)-3-(4-(trifluoromethyl)phenyl)quinazolin-4(3H)-one]",> 125 µM,85 % Rem.,90 % Rem.,94 % Rem.,21.6 µM,,"MIC90 [1, 5]: >125 µM"
"C[S+]([O-])c1cccc(-c2ccc3nc(N)n(-c4ccc(C(F)(F)F)nc4)c(=O)c3c2)c1 (stereo not shown) [compound 47, 2-Amino-6-(3-(methylsulfinyl)phenyl)-3-(6-(trifluoromethyl)pyridin-3-yl)quinazolin-4(3H)-one]",,93 % Rem.,93 % Rem.,99 % Rem.,< 5 µM,0.922 µM,
C[S+]([O-])c1cccc(-c2ccc3nc(N)n(-c4ccccc4C(F)(F)F)c(=O)c3c2)c1 (stereo not shown) [compound 48],,,,,,> 125 µM,
C[S+]([O-])c1cccc(-c2ccc3nc(N)n(-c4ccc(F)cc4)c(=O)c3c2)c1 (stereo not shown) [compound 49],,82 % Rem.,96 % Rem.,93 % Rem.,37.8 µM,4.84 µM,solubility [3]: 38 µM
C[S+]([O-])c1cccc(-c2ccc3nc(N)n(-c4ccccc4F)c(=O)c3c2)c1 (stereo not shown) [compound 50],,,,,,67 µM,
C[S+]([O-])c1cccc(-c2ccc3nc(N)n(-c4ccc(S(C)(=O)=O)cc4)c(=O)c3c2)c1 (stereo not shown) [compound 51],,,,,,> 125 µM,
C[S+]([O-])c1cccc(-c2ccc3nc(N)n(-c4ccc(O)cc4)c(=O)c3c2)c1 (stereo not shown) [compound 52],,,,,,> 125 µM,
COc1ccc(-n2c(N)nc3ccc(-c4cccc([S+](C)[O-])c4)cc3c2=O)cc1 (stereo not shown) [compound 53],,100 % Rem.,99 % Rem.,103 % Rem.,> 100 µM,6.75 µM,solubility [3]: 128 µM
C[S+]([O-])c1cccc(-c2ccc3nc(N)n(-c4ccc(C#N)cc4)c(=O)c3c2)c1 (stereo not shown) [compound 54],,92 % Rem.,91 % Rem.,98 % Rem.,16.3 µM,9.28 µM,solubility [3]: 16 µM
C[S+]([O-])c1cccc(-c2ccc3nc(N)n(-c4cccc(C#N)c4)c(=O)c3c2)c1 (stereo not shown) [compound 55],,,,,,43 µM,
C[S+]([O-])c1cccc(-c2ccc3nc(N)n(C4CCC(F)(F)CC4)c(=O)c3c2)c1 (stereo not shown) [compound 56],,95 % Rem.,83 % Rem.,81 % Rem.,> 100 µM,45.7 µM,solubility [3]: 125 µM
C[S+]([O-])c1cccc(-c2ccc3nc(N)n(C4CCC(C(F)(F)F)CC4)c(=O)c3c2)c1 (stereo not shown) [compound 57],,,,,,2.75 µM,
C[S+]([O-])c1cccc(-c2ccc3nc(N)n(Cc4ccc(C(F)(F)F)cc4)c(=O)c3c2)c1 (stereo not shown) [compound 58],,52 % Rem.,69 % Rem.,61 % Rem.,> 100 µM,> 31 µM,solubility [3]: 104 µM
